Laboratory results published in patent US20120157521A1, “TREATMENT OF MACULAR DEGENERATION” (Bonomics Limited, priority 2009, published 2012).

How the values were obtained:
[1] = test system: tubulin; assay: Tubulin polymerisation assay; format: biochemical
Protocol: Tubulin Polymerisation Assay: Tubulin polymerisation inhibition assays were performed using a fluorescent-based detection kit (#BK011, Cytoskeleton) according to the instructions of the manufacturer. The test compound was added to a 2 mg/ml tubulin solution containing 20% glycerol and 1 mM GTP in 1× Buffer 1 (Buffer 1: 80 mM Piperazine-N,N′-bis[2-ethanesulfonic acid]sequisodium salt; 2 mM magnesium chloride; 0.5 mM Ethylene glycol-bis(b-amino-ethyl ether)N,N,N′,N′-tetra-acetic acid, pH 6.9, 10 uM fluorescent reporter). Fluorescence was measured over a period of 42 minutes at 1 minute intervals. Increased fluorescence indicates increase in tubulin polymerisation. There is a ten-fold increase in the affinity of the fluorescent reporter for polymerised tubulin compared to monomeric tubulin subunits. The result is a fluorescence signal that closely follows tubulin polymerisation.

[2] = test system: quiescent human umbilical vein endothelial cells (HUVEC); assay: Proliferation assay - quiescent endothelium (MTT), HUVEC; format: cell-based; conditions: 48 hrs
Protocol: Proliferation Assay—quiescent endothelium: Human umbilical vein endothelial cells (CC-2519, Clonetics) were plated at 15000 cells/well in EBM2 (CC-3156, Clonetics)+0.5% FBS (CC-4101A, Clonetics)+GA-1000 (CC-4381A, Clonetics) in a 96 well plate in triplicate. Cells were cultured overnight at 37° C. 5% CO2. Medium was subsequently replaced with fresh medium including the compound or negative control. Cells were cultured for a period of 48 hrs. An MTT assay was performed to measure changes in cell numbers. Briefly, 20 μl of MTT reagent was added to cells containing 100 μl of EBM2+0.5% FBS and incubated at 37° C. for 2 hours. Absorbance was measured at 492 nm.

[3] = test system: HUVEC cells under activated cell conditions; assay: Disruption of endothelial cell cytoskeleton (actin staining); format: cell-based, human; conditions: 10 nM, 20 minutes, actin stain
Protocol: FIG. 7 depicts disruption of endothelial cell cytoskeleton by compound Example 2. Endothelial cells were cultured in the presence of 10 nM compound Example 2 or DMSO control, and after 20 mins washed, fixed and stained with actin.
HUVEC cells were cultured under “activated” cell conditions in the presence of 10 nM compound Example 2 or DMSO control (using HUVEC cells). After 20 minutes cells were washed, fixed and stained for actin. […] A bleb is defined as an irregular bulge in the plasma membrane of a cell caused by localized decoupling of the cytoskeleton from the plasma membrane. Blebbing is the term used to describe the formation of blebs.

[4] = test system: HUVEC endothelial cell capillary formation; assay: Endothelial cell capillary formation on Matrigel; conditions: HUVEC, 25,000/well, 96-well plates, 22 hrs
Protocol: DMSO vehicle was included in the analysis as a negative control. Cells were plated at 25,000/well in 96-well plates and cultured for 22 hrs.
DMSO vehicle (C, F) was included in the analysis as a negative control. Cells were plated at 25,000/well in 96-well plates and cultured for 22 hrs.

[5] = test system: quiescent human abdominal aorta endothelial cells (HAAEC); assay: Proliferation assay - quiescent endothelium, HAAEC; conditions: Endothelial cell, read-out: Quiescent EC50
[6] = test system: stable pre-formed HUVEC capillary tubes; assay: Disruptive activity on stable pre-formed capillary tubes on Matrigel; conditions: 5 hrs after compound, at concentrations that inhibit capillary formation

COc1cc(C(=O)c2c(C)oc3c(O)c(OC)ccc23)cc(OC)c1OC [Example 1, 2-Methyl-7-hydroxy-3-(3,4,5-trimethoxybenzoyl)-6-methoxybenzofuran]
Tubulin polymerisation inhibition (in words) [1]: potent tubulin polymerisation inhibitor

COc1cc(C(=O)c2c(C)oc3c(OP(=O)([O-])[O-])c(OC)ccc23)cc(OC)c1OC.[Na+].[Na+] [Example 2, Disodium 6-methoxy-2-methyl-3-(3,4,5-trimethoxybenzoyl)benzofuran-7-yl phosphate]
EC50 [2]: 23.3 nM
Disruption of endothelial cell cytoskeleton (blebbing) [3]: clear evidence of “blebbing”
Effect on capillary formation on Matrigel [4]: inhibited
EC50 [5]: 12.5 nM
Disruption of stable pre-formed capillaries [6]: does not disrupt stable pre-formed capillaries
